Laboratory results reported in PubChem BioAssay (NCI).
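GI50: concentration for 50% inhibition of growth. TGI is the concentration that stops growth completely.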

Experiments:
Assay in all cases: growth of human tumour cells (NCI), 384-well format
UACC-257 melanoma = tested on: UACC-257 melanoma
MDA-MB-435 melanoma = tested on: MDA-MB-435 melanoma
BT-549 breast = tested on: BT-549 breast
SNB-75 CNS = tested on: SNB-75 CNS
MDA-MB-468 breast = tested on: MDA-MB-468 breast
RPMI-8226 leukemia = tested on: RPMI-8226 leukemia
HOP-62 NSCLC = tested on: HOP-62 NSCLC
UO-31 renal = tested on: UO-31 renal
K-562 leukemia = tested on: K-562 leukemia
COLO 205 colon = tested on: COLO 205 colon
SK-MEL-2 melanoma = tested on: SK-MEL-2 melanoma
NCI-H226 lung = tested on: NCI-H226 lung
HS 578T breast = tested on: HS 578T breast
NCI-H23 lung = tested on: NCI-H23 lung
CAKI-1 renal = tested on: CAKI-1 renal
UACC-62 melanoma = tested on: UACC-62 melanoma
SK-MEL-28 melanoma = tested on: SK-MEL-28 melanoma
SNB-19 CNS = tested on: SNB-19 CNS
A549 NSCLC = tested on: A549 NSCLC
HCC-2998 colon = tested on: HCC-2998 colon
SF-268 CNS = tested on: SF-268 CNS
DU-145 prostate = tested on: DU-145 prostate
TK-10 renal = tested on: TK-10 renal
786-0 renal = tested on: 786-0 renal
T-47D breast = tested on: T-47D breast
SK-OV-3 ovarian = tested on: SK-OV-3 ovarian
HCT-116 colon = tested on: HCT-116 colon
NCI-H322M lung = tested on: NCI-H322M lung
KM12 colon = tested on: KM12 colon
M14 melanoma = tested on: M14 melanoma
MDA-MB-231 breast = tested on: MDA-MB-231 breast
CCRF-CEM leukemia = tested on: CCRF-CEM leukemia
IGROV1 ovarian = tested on: IGROV1 ovarian
A498 renal = tested on: A498 renal
SF-295 CNS = tested on: SF-295 CNS
OVCAR-5 ovarian = tested on: OVCAR-5 ovarian
MOLT-4 leukemia = tested on: MOLT-4 leukemia
MALME-3M melanoma = tested on: MALME-3M melanoma
PC-3 prostate = tested on: PC-3 prostate
SK-MEL-5 melanoma = tested on: SK-MEL-5 melanoma
MCF7 breast = tested on: MCF7 breast
HOP-92 NSCLC = tested on: HOP-92 NSCLC
OVCAR-3 ovarian = tested on: OVCAR-3 ovarian
OVCAR-8 ovarian = tested on: OVCAR-8 ovarian
NCI-H460 NSCLC = tested on: NCI-H460 NSCLC
ACHN renal = tested on: ACHN renal
HL-60(TB) leukemia = tested on: HL-60(TB) leukemia

`CCN(CC)CCNC(=O)c1c(C)[nH]c(/C=C2\C(=O)Nc3ccc(F)cc32)c1C` showed a GI50 (UACC-257 melanoma) of 1710 nM, a TGI (UACC-257 melanoma) of 3.1 µM and a GI50 (MDA-MB-435 melanoma) of 2450 nM. For the same molecule, the TGI (MDA-MB-435 melanoma) was 6.53 µM, the GI50 (BT-549 breast) was 1580 nM and the TGI (BT-549 breast) was 2980 nM. For the same molecule, the GI50 (SNB-75 CNS) was 3.67 µM, the TGI (SNB-75 CNS) was 8.24 µM and the GI50 (MDA-MB-468 breast) was 2940 nM. The TGI (MDA-MB-468 breast) was 5.41 µM, the GI50 (RPMI-8226 leukemia) was 1380 nM and the TGI (RPMI-8226 leukemia) was 2780 nM. It also gave a GI50 (HOP-62 NSCLC) of 2780 nM, a TGI (HOP-62 NSCLC) of 8.28 µM and a GI50 (UO-31 renal) of 2170 nM. For the same molecule, the TGI (UO-31 renal) was 6.36 µM, the GI50 (K-562 leukemia) was 1350 nM and the TGI (K-562 leukemia) was 2660 nM. For the same molecule, the GI50 (COLO 205 colon) was 3.18 µM, the TGI (COLO 205 colon) was 7.89 µM and the GI50 (SK-MEL-2 melanoma) was 1290 nM. For the same molecule, the TGI (SK-MEL-2 melanoma) was 2570 nM, the GI50 (NCI-H226 lung) was 1610 nM and the TGI (NCI-H226 lung) was 4.48 µM. The GI50 (HS 578T breast) was 1860 nM, the TGI (HS 578T breast) was 3.73 µM and the GI50 (NCI-H23 lung) was 1910 nM. The TGI (NCI-H23 lung) was 4.64 µM, the GI50 (CAKI-1 renal) was 748 nM and the TGI (CAKI-1 renal) was 2060 nM. For the same molecule, the GI50 (UACC-62 melanoma) was 1800 nM, the TGI (UACC-62 melanoma) was 4.46 µM and the GI50 (SK-MEL-28 melanoma) was 1660 nM. It also gave a TGI (SK-MEL-28 melanoma) of 3.13 µM, a GI50 (SNB-19 CNS) of 6.08 µM and a TGI (SNB-19 CNS) of 13.7 µM. For the same molecule, the GI50 (A549 NSCLC) was 2580 nM, the TGI (A549 NSCLC) was 6.97 µM and the GI50 (HCC-2998 colon) was 1710 nM. For the same molecule, the TGI (HCC-2998 colon) was 3.32 µM, the GI50 (SF-268 CNS) was 4.23 µM and the TGI (SF-268 CNS) was 13.1 µM. It also gave a GI50 (DU-145 prostate) of 2540 nM, a TGI (DU-145 prostate) of 11.9 µM and a GI50 (TK-10 renal) of 3.11 µM. For the same molecule, the TGI (TK-10 renal) was 8.02 µM, the GI50 ([…]-0 renal) was 1620 nM and the TGI (786-0 renal) was 3.11 µM. For the same molecule, the GI50 (T-47D breast) was 4.24 µM, the TGI (T-47D breast) was 8.33 µM and the GI50 (SK-OV-3 ovarian) was 1040 nM. It also gave a TGI (SK-OV-3 ovarian) of 5.7 µM, a GI50 (HCT-116 colon) of 1280 nM and a TGI (HCT-116 colon) of 2620 nM. For the same molecule, the GI50 (NCI-H322M lung) was 2410 nM, the TGI (NCI-H322M lung) was 8.96 µM and the GI50 (KM12 colon) was 42.6 nM. It also gave a TGI (KM12 colon) of 4.7 µM, a GI50 (M14 melanoma) of 911 nM and a TGI (M14 melanoma) of 2150 nM. The GI50 (MDA-MB-231 breast) was 2220 nM, the TGI (MDA-MB-231 breast) was 5.5 µM and the GI50 (CCRF-CEM leukemia) was 1580 nM. The TGI (CCRF-CEM leukemia) was 2940 nM, the GI50 (IGROV1 ovarian) was 1140 nM and the TGI (IGROV1 ovarian) was 5.97 µM. The GI50 (A498 renal) was 1540 nM, the TGI (A498 renal) was 3.14 µM and the GI50 (SF-295 CNS) was 5.25 µM. For the same molecule, the TGI (SF-295 CNS) was 9.62 µM, the GI50 (OVCAR-5 ovarian) was 2670 nM and the TGI (OVCAR-5 ovarian) was 11.2 µM. For the same molecule, the GI50 (MOLT-4 leukemia) was 1030 nM, the TGI (MOLT-4 leukemia) was 2280 nM and the GI50 (MALME-3M melanoma) was 1170 nM. For the same molecule, the TGI (MALME-3M melanoma) was 2410 nM, the GI50 (PC-3 prostate) was 2270 nM and the TGI (PC-3 prostate) was 7.54 µM. For the same molecule, the GI50 (SK-MEL-5 melanoma) was 1240 nM, the TGI (SK-MEL-5 melanoma) was 2500 nM and the GI50 (MCF7 breast) was 1360 nM. It also gave a TGI (MCF7 breast) of 3.8 µM, a GI50 (HOP-92 NSCLC) of 1620 nM and a TGI (HOP-92 NSCLC) of 4.86 µM. The GI50 (OVCAR-3 ovarian) was 1780 nM, the TGI (OVCAR-3 ovarian) was 3.31 µM and the GI50 (OVCAR-8 ovarian) was 2350 nM. The TGI (OVCAR-8 ovarian) was 6.18 µM, the GI50 (NCI-H460 NSCLC) was 1790 nM and the TGI (NCI-H460 NSCLC) was 5.73 µM. For the same molecule, the GI50 (ACHN renal) was 1300 nM, the TGI (ACHN renal) was 3.06 µM and the GI50 (HL-60(TB) leukemia) was 892 nM. The TGI (HL-60(TB) leukemia) was 2130 nM.
